Data reported in ChEMBL document CHEMBL2401704, “Inhibition of rhodesain as a novel therapeutic modality for human African trypanosomiasis” (J Med Chem, 2013).
One block for each compound: values may come before it. Residues, ends and D or L forms follow the SMILES beside them. *: point of attachment. Cbz = O=C(OCc1ccccc1)*; CHN2 = [N-]=[N+]=C*; CH2Cl = ClC*

Experiments:
Trypanosoma brucei [1] = test: Antitrypanosomal activity against Trypanosoma brucei; assay type: functional, organism-based
[2] = Inhibition of Trypanosoma brucei rhodesain
[3] = Inhibition of Trypanosoma brucei recombinant rhodesain
Trypanosoma brucei [4] = test: Inhibition of Trypanosoma brucei rhodesain assessed as second order rate constant
[5] = system: Trypanosoma brucei brucei; test: Antitrypanosomal activity against blood stream form of Trypanosoma brucei brucei; assay type: functional, organism-based
L6 = test: Cytotoxicity against rat L6 cells; assay type: cell-based
Plasmodium falciparum = test: Antiprotozoal activity against Plasmodium falciparum; assay type: functional, organism-based
[6] = Inhibition of Plasmodium falciparum Falcipain 2
[7] = system: Trypanosoma brucei rhodesiense; test: Antitrypanosomal activity against Trypanosoma brucei rhodesiense; assay type: functional, organism-based
Rhodesain = Rhodesain (Trypanosoma brucei rhodesiense, UniProt Q95PM0); test: Inhibition of Trypanosoma brucei rhodesiense rhodesain
Cruzipain = Cruzipain (Trypanosoma cruzi, UniProt P25779); test: Inhibition of Trypanosoma cruzi cruzain
[8] = system: Trypanosoma brucei brucei; test: Antitrypanosomal activity against Trypanosoma brucei brucei; assay type: functional, organism-based
Trypsin = Trypsin (Homo sapiens, UniProt P07477+P07478+P35030); test: Inhibition of trypsin (unknown origin); assay type: protein assay
[9] = Inhibition of cathepsin B (unknown origin); parameters: species or system Homo sapiens
Papain = biological target: T1, Papain (Carica papaya, UniProt P00784); test: Inhibition of papaya papain
T1 sequence (P00784 whole entry): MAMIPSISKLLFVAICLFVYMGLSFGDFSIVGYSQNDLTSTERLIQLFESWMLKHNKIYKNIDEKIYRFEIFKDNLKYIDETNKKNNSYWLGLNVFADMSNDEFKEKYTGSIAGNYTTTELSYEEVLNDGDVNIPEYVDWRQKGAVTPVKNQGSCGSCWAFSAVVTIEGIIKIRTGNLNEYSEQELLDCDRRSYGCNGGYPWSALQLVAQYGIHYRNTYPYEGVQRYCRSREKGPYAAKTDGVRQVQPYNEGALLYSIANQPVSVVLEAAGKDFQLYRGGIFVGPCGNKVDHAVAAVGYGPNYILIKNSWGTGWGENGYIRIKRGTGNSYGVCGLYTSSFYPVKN

[10] = system: Trypanosoma brucei brucei; test: Antitrypanosomal activity against procyclic form of Trypanosoma brucei brucei; assay type: functional; conditions: read-out: ED50 (the source's name)

Chain of Cruzipain (P25779 whole entry): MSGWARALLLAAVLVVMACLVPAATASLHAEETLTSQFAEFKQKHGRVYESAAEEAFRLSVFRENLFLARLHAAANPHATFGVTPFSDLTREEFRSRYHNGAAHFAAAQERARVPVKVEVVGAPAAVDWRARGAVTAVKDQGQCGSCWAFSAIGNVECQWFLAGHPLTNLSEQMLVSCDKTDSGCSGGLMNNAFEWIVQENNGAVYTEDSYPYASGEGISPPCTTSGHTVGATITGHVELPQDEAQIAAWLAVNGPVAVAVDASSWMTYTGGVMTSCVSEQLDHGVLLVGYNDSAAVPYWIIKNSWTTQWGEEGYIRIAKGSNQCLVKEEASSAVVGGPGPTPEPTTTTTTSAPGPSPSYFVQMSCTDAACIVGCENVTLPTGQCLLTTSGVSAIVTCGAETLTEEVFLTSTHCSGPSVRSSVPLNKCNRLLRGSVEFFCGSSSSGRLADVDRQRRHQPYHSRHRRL
Chain of Rhodesain (Q95PM0 whole entry): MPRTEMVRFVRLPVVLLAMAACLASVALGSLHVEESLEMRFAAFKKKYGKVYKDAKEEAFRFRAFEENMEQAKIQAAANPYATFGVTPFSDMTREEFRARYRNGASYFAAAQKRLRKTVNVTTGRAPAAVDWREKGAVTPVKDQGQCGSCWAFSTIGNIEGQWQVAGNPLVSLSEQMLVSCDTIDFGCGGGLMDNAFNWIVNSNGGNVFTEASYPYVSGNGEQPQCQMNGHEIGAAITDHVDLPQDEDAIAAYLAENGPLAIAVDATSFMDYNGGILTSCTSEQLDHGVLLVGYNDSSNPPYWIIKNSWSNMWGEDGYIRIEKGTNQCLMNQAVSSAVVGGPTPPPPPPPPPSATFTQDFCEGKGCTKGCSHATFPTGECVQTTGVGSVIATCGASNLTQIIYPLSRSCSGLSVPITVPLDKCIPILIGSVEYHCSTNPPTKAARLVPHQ

SMILES: C/C(=N\N=C(/S)N1CCCCC1)c1cccc(Br)c1
IC50 (Trypanosoma brucei [1]): 3000 nM | IC50 [2]: 4 µM

SMILES: CN(C#N)N(C)C(=O)[C@H](Cc1ccccc1)NC(=O)OC(C)(C)C
IC50 [3]: 0.06 nM

SMILES: N#Cc1nc(N2CCOCC2)nc(N(c2ccccc2)c2ccccc2)n1
IC50 (L6): 22 µM | IC50 (Plasmodium falciparum): > 5000 nM | Ki [6]: 42 nM | IC50 [7]: 18.9 µM | Ki (Rhodesain): 36 nM

SMILES: CC(C)C[C@H](NC(=O)c1ccc2c(c1)OCCO2)C(=O)N(C)N(C#N)CCCc1ccccc1
IC50 [3]: 0.14 nM

SMILES: CSc1cccc(NC(=O)Nc2sc3ccccc3c2Cl)c1
IC50 [2]: < 10 µM | IC50 (Cruzipain): < 10 µM

SMILES: N=C(NC(=O)OCc1ccccc1)NC(=O)c1ccc(C(=O)NCc2ccc(NC(=O)OCc3ccccc3)cc2)[nH]1
IC50 [8]: > 100 µM | Ki [6]: 870 nM | Ki [2]: 28 nM

SMILES: CCCC1CCC(N(Cc2ccc3c(c2)OCO3)c2nc(C#N)nc(N3CCOCC3)n2)CC1 (centres undefined)
IC50 (L6): 5.9 µM | IC50 (Plasmodium falciparum): 2400 nM | Ki [6]: 1030 nM | IC50 [7]: 31.2 µM | Ki (Rhodesain): 2 nM

SMILES: CN(C#N)N(C)C(=O)[C@H](Cc1ccccc1)NC(=O)c1ccc2c(c1)OCCO2
IC50 [3]: 0.14 nM

SMILES: C/C(=N\N=C(\N)S)c1ccc(Oc2ccccc2)cc1
IC50 (Trypanosoma brucei [1]): 3000 nM | IC50 [2]: 8 µM

SMILES: N=C(NC(=O)OCc1ccccc1)NC(=O)c1ccc(C(=O)NCc2cccc(NC(=O)OCc3ccccc3)c2)o1
IC50 [8]: 8.31 µM | Ki [6]: 1150 nM | Ki [2]: 50 nM

SMILES: CC(C)[C@H](NC(=O)c1ccc2c(c1)OCCO2)C(=O)N(C)N(C#N)CCCc1ccccc1
IC50 [3]: 54 nM

SMILES: CC(C)[C@H](NC(=O)c1ccc2c(c1)OCCO2)C(=O)N(C)N(C)C#N
IC50 [3]: 5.4 nM

SMILES: CCCCCN(C#N)N(C)C(=O)[C@H](CC(C)C)NC(=O)c1ccc2c(c1)OCCO2
IC50 [3]: 0.33 nM

SMILES: CCOC(=O)c1ccc(NC(=S)NC(=O)c2ccc(Cl)c(Cl)c2)cc1
IC50 [2]: 2 µM | IC50 (Trypsin): > 50 µM | IC50 [9]: 10.7 µM | IC50 (Papain): > 50 µM | IC50 (Cruzipain): 1.9 µM

SMILES: CN(C(=O)[C@H](Cc1ccccc1)NC(=O)c1ccc2c(c1)OCCO2)N(C#N)Cc1ccccc1
IC50 [3]: 0.51 nM

SMILES: O=C(NC(=S)Nc1ccc(O)cc1)c1sc2ccccc2c1Cl
IC50 [2]: < 10 µM | IC50 (Cruzipain): < 10 µM

SMILES: CCCC/C(=N\NC(N)=S)c1ccc(Cl)c(Cl)c1
IC50 [7]: 0.13 µM

SMILES: O=C1C(=O)N(C(=O)OCc2ccccc2)c2ccccc21
IC50 [2]: 30 µM

SMILES: NC(=S)/N=N/c1c(O)[nH]c2ccccc12
IC50 [2]: 3.5 µM

SMILES: C/C(=N\N=C(\N)S)c1cccc(Nc2ccccc2)c1
IC50 (Trypanosoma brucei [1]): 8000 nM | IC50 [2]: 0.8 µM

SMILES: CN(C(=O)[C@H](Cc1ccccc1)NC(=O)OCc1ccccc1)N(C#N)CCc1ccccc1
IC50 [3]: 0.81 nM

SMILES: N=C(NC(=O)OCc1ccccc1)NC(=O)c1ccc(C(=O)NCc2ccccc2)o1
Ki [6]: 2690 nM | Ki [2]: 2080 nM

SMILES: CS/C(S)=N/N=C(\C)c1ccccn1
IC50 (Trypanosoma brucei [1]): 300 nM | IC50 [2]: > 20 µM

SMILES: CC(C)C[C@H](NC(=O)c1ccc2c(c1)OCCO2)C(=O)N(C)N(C#N)Cc1ccccc1
IC50 [3]: 0.33 nM

SMILES: CCN(CC)/C(S)=N/N=C(\C)c1cccc(Br)c1
IC50 (Trypanosoma brucei [1]): 3000 nM | IC50 [2]: 1.8 µM

The next lines start with results.

K (Trypanosoma brucei [4]): 1.61 ×10⁷ /M/min
SMILES: O=C(N[C@@H](Cc1ccccc1)C(=O)N[C@H](/C=C/S(=O)(=O)c1ccccc1)CCc1ccccc1)OCc1ccccc1

IC50 [5]: 21 µM
SMILES: C[C@H](NC(=O)[C@H](Cc1ccccc1)NC(=O)OCc1ccccc1)C(=O)CCl

IC50 [5]: 4.8 µM
SMILES: [N-]=[N+]=CC(=O)[C@H](Cc1ccccc1)NC(=O)[C@H](Cc1ccccc1)NC(=O)OCc1ccccc1 (Cbz-Phe-Phe-CHN2)

IC50 [5]: 3.6 µM
SMILES: O=C(N[C@@H](Cc1ccccc1)C(=O)N[C@@H](Cc1ccccc1)C(=O)CCl)OCc1ccccc1 (Cbz-Phe-Phe-CH2Cl)

IC50 [5]: 31 µM
SMILES: C[C@H](NC(=O)[C@H](Cc1ccccc1)NC(=O)OCc1ccccc1)C(=O)CF

IC50 [5]: 6.1 µM
SMILES: C[C@H](NC(=O)[C@H](Cc1ccccc1)NC(=O)OCc1ccccc1)C(=O)C=[N+]=[N-]

K (Trypanosoma brucei [4]): 2.24 ×10⁶ /M/min
SMILES: O=C(N[C@@H](Cc1ccccc1)C(=O)N[C@H](/C=C/S(=O)(=O)Nc1ccccc1)CCc1ccccc1)OCc1ccccc1

IC50 [8]: 2.32 µM | Ki [2]: 100 nM
SMILES: N=C(NC(=O)OCc1ccccc1)NC(=O)c1ccc(C(=O)NCc2cccc(NC(=O)OCc3ccccc3)c2)[nH]1
Ki [6]: 1620 nM

EC50 [10]: 700 nM | EC50 ([5]; read-out: ED50 (the source's name)): 1400 nM
SMILES: CCCCCN(C#N)N(C)C(=O)[C@H](Cc1ccccc1)NC(=O)OCc1ccccc1
IC50 [3]: 0.06 nM

K (Trypanosoma brucei [4]): 15.8 ×10⁶ /M/min
SMILES: CC(C)C[C@H](NC(=O)N1CCOCC1)C(=O)N[C@H](/C=C/S(=O)(=O)c1ccccc1)CCc1ccccc1

K (Trypanosoma brucei [4]): 5.35 ×10⁷ /M/min
SMILES: O=C(N[C@@H](Cc1ccccc1)C(=O)N[C@H](/C=C/S(=O)(=O)Cc1ccccc1)CCc1ccccc1)OCc1ccccc1
